Measurements from patent US20240150301A1, “METHODS OF MODULATING ANDROGEN RECEPTOR CONDENSATES” (ETERN BIOPHARMA (SHANGHAI) CO., LTD., priority 2021, published 2024).
“Also recorded” adds a separate entry of the source.

Molecular target: T1, AR V7 (Homo sapiens, UniProt P10275)
T1 sequence (P10275 1-644 isoform P10275-3): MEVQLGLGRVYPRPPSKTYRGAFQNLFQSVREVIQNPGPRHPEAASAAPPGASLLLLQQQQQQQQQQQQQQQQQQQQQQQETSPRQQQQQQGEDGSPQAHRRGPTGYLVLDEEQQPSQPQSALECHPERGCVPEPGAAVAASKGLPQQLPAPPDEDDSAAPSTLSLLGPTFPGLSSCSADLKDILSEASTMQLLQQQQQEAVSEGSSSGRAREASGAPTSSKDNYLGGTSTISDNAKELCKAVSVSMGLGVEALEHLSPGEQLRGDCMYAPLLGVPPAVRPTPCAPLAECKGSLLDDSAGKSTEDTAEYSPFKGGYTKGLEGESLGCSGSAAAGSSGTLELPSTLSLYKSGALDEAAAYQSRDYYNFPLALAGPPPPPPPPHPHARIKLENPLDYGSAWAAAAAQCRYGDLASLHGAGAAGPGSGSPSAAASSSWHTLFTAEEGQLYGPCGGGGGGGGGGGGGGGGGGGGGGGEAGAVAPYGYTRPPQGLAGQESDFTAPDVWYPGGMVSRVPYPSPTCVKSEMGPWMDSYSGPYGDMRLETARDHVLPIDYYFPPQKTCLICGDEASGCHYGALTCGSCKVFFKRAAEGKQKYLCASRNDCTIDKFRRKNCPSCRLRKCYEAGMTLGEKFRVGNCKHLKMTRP
Test: Live-cell imaging of AR puncta (LLPS) in LNCaP cells, AR V7-mEGFP
Assay type: cell-based
Set-up: expressed in transfected cells; host or cells: LNCaP
Conditions: 10 μM compound, no DHT
Experimental: Cells were grown on 24-well glass bottom plate (Cellvis, P24-1.5H-N) and images were taken with the Leica TCS SP8 confocal microscopy system using a 100× oil objective (NA=1.4). Cells were imaged on a heated stage (37° C.) and supplemented with warmed (37° C.) humidified air. The microscope was enclosed in an incubation chamber heated to 37° C.
For compounds treatment assay, LNCaP cells were transfected with an expression vector for AR (AR or AR F877L/T878A)-mEGFP using steroid hormone-free and phenol red-free RPMI media for 24 hours before compound treatment. After 10 μM compounds treatment for 3 hour, LNCaP cells were added with 1 nM DHT. For ligand-independent AR V7-mEGFP expressing LNCaP cells, starvation step is skipped and compounds were added 12 hours after transfection. The final concentration of DMSO was 0.1%. Cells were subjected to microscopic observation every 30 mins after DHT/compounds were added.
Data was analyzed by images collected from 100 representative fields in each group. The spots quantification was performed based on the area and intensity of the spots through green (AR-mEGFP) channel. Fluorescent images were processed and assembled into figures using LAS X (Leica) and Fiji.
After 10 μM compounds treatment for 3 hour, LNCaP cells were added with 1 nM DHT. […]

CC(C)(c1ccc(C#Cc2cnc(NS(C)(=O)=O)nc2)cc1)c1cc(Cl)c(OCCCl)c(C#N)c1 [Compound 60, N-(5-((4-(2-(3-chloro-4-(2-chloroethoxy)-5-cyanophenyl)propan-2-yl)phenyl)ethynyl)pyrimidin-2-yl)methanesulfonamide]
puncta formation / LLPS of AR V7: could suppress the phase separation; also recorded: abolished the puncta formation; also recorded: significantly impaired the LLPS
